Data set [1] concerns SNAP-25, Syntaxin-1A, AT1A3. The data set can be described thus: Immunocytochemistry of porosome proteins in Alzheimer's neurons. The class given is cell-based, mouse. Particulars: Alzheimer's neurons WT-APP (Aβ).
Another data set concerns HT-22 cells. The class given is cell-based, mouse.
For data set [2] the following is noted: stated in discussion, no reference given; cited from earlier work.

Turning to `O=c1cc(-c2ccc(O)cc2)oc2cc(O)cc(O)c12` [Apigenin], the “immunoreactivity of SNAP-25, Syntaxin-1A and AT1A3, single agent” value in data set [1] is “Modest increase”. In the data set with HT-22 cells (AD neurons, peptide and Apigenin combined), the “mitoSOX, peptide plus Apigenin” value is on record as “near normal levels”. For the same compound, the “mitoSOX, effect of Apigenin” value in the data set on HT-22 cells (HT-22, Apigenin 5 or 10 μM with DA1 1 μM, Aβ1–42 10 μM 12 h) was “not much change”. Moreover, the “passage through the blood-brain barrier” value in data set [2] is “can pass through the blood-brain barrier”.

(Values after paper doi:10.1101/2024.11.09.622805v1 (bioRxiv, 2024).)
